In brackets after ≈: the same amount, converted by molar mass. Read-outs that look alike come from different tables or passages of the source. No end group written: not given here.
What was measured:
[1] = system: Candida albicans CCARM 14007 (fluconazole-resistant strain); assay: microbe, parasite or virus in culture; type: cell-based
From the text: […] The lowest drug concentration at which no more than one colony was visible on the agar plate, was defined as a minimum fungicidal concentration (MFC).

[2] = system: C. albicans CCARM 14007-infected mouse lung; type: in vivo, BALB/c mice
From the text: Animal study was approved by the Institutional Animal Care and Use Committee (IACUC) in Sunchon National University, South Korea (SCNU IACUC-2019-10). […] The mice anesthetized by inhalation of isoflurane (5%: induction, 2%: maintenance) in pure oxygen were intratracheally instilled with C. albicans cells. One hour after exposure, each peptide sample was intratracheally administered at the indicated dose, and the mice were monitored for signs of morbidity for 6 days. The lungs of mice euthanized by CO2 inhalation were excised and fixed in 4% paraformaldehyde. The fixed tissues were dehydrated using a series of ethanol solutions (50–100%) and embedded in paraffin. Paraffin-embedded tissues were sectioned at a thickness of 5 µm (Leica microtome, Deerfield, IL, USA), and the histopathology of the lung tissues was performed using alcian blue without/with eosin, and hematoxylin and eosin (H&E) staining.
TNF-α and NO production levels in blood collected from mouse hearts were determined using mouse anti-TNF-α microplate ELISA kit (R&D Systems, Minneapolis, MN, USA) and Griess reagent kit (Invitrogen, Carlsbad, CA, USA), respectively, followed by the manufacturer’s instructions.

[3] = cited from earlier work
Protocol: Alterations in the killing kinetic pattern under low salt (SP) and high salt (PBS) conditions can predict the interaction and mode of action of peptides on yeast. Because propidium (PI) dye can stain the live cells only temporarily, it will be released ... || To investigate the proteolytic stability of the peptides, the peptide solutions were pre-treated with trypsin for 40 min and added to C. albicans cells. After 24 h of incubation, cells were spread on agar plates (Figure 4).

C. albicans CCARM 14007 = settings: CCARM 14007, pH 7.2
Protocol: C. albicans CCARM 14007 cells grown to the mid-log phase at 28 °C were suspended in 10 mM sodium phosphate (pH 7.2) buffer or PBS (pH 7.2) buffer with 10% YPD media at a density of 5 × 10^5 cells/mL. […] The cells were analyzed by fluorescence-activated cell sorting (FACS) system (Attune NxT acoustic focusing cytometer).

C. albicans KCTC 7270 = assay: Drug-resistance assay (MFC over six passages); type: cell-based; settings: Candida albicans
Protocol: To investigate the induction of drug resistance, C. albicans KCTC 7270 cells were prepared as for antifungal assay described above, at concentrations ranging from 1 to 128 μM. After 24 h incubation, MFCs were determined by the above method, and the surviving cells at half MFCs of each sample were treated with the diluted samples, repeating the process six times.

[4] = system: RAW 264.7 cells stimulated with C. albicans CCARM 14007; assay: Anti-inflammatory assay in co-culture of RAW 264.7 and C. albicans; type: cell-based, murine; settings: fluconazole 128 µM or PS1-2 32 µM, 24 h
Protocol: RAW 264.7 cells were cultured in DMEM supplemented with 10% FBS, 1% penicillin/streptomycin, and GlutaMax at 5% CO2 at 37 °C. The RAW 264.7 cells (2 × 10^5 cells/mL) suspended with RPMI-1640 medium were seeded into 12-well plates and incubated for 24 h. […] After 24 h incubation, cells were washed and harvested in PBS. A total of 1000 µL of blocking solution (5% bovine serum albumin with PBS) was added to each sample, incubated at 25 °C for 30 min, removed by centrifugation at 1000× g, and then incubated with the primary antibody (anti-TLR2, or anti-TNF-α; Abcam, Cambridge, UK, 1:200 dilution) for 1 h. The cells were washed with PBS and incubated with a secondary antibody (fluorescein isothiocyanate-conjugated goat anti-mouse IgG, 1:500 dilution; Santa Cruz Biotechnology) for 1 h. Cells expressing TLR2 were measured using an Attune NxT acoustic focusing cytometer. TNF-α expression was visualized using a confocal laser-scanning microscope (CLSM, A1R HD 25, Nikon, Tokyo, Japan).

**Q.** For KWYKKWYKKWYK-NH2 [PS1-2], which MFC ([1]; CCARM 14007, 24 h, pH 6) is on record?
**A.** 32 µM

**Q.** What about the MFC ([1]; CCARM 14007, 24 h, pH 7.2) of the same compound?
**A.** 32 µM

**Q.** What about the “lung histology of non-infected mice (in words)” value ([2]; mouse, in vivo, 2 mg/kg) of the same compound?
**A.** did not induce inflammation

**Q.** And the “toxicity / cytotoxicity (in words)” value [3]?
**A.** significantly lower than that of PS1-6

**Q.** And the “cells killed (PI-positive cells)” value (C. albicans CCARM 14007)?
**A.** 87%

**Q.** Which results are given for `OC(Cn1cncn1)(Cn1cncn1)c1ccc(F)cc1F` [Fluconazole, fluconazole]?
**A.** MFC ([1]; 28 °C, 6 mM CaCl2 (pH 5.5), 24 h): >128 µM; MFC ([1]; 28 °C, 6 mM MgCl2 (pH 5.5), 24 h): >128 µM; MFC ([1]; 28 °C, 24 mM KCl (pH 5.5), 24 h): >128 µM; MFC ([1]; 28 °C, pH 5.5, 10 mM sodium phosphate buffer containing 10% media, 24 h): >128 µM; MFC ([1]; 28 °C, pH 6.0, 10 mM sodium phosphate buffer containing 10% media, 24 h): >128 µM; MFC ([1]; 28 °C, pH 7.2, 10 mM sodium phosphate buffer containing 10% media, 24 h): >128 µM; MFC ([1]; 37 °C, 6 mM CaCl2 (pH 5.5), 24 h): >128 µM; MFC ([1]; 37 °C, 6 mM MgCl2 (pH 5.5), 24 h): >128 µM; MFC ([1]; 37 °C, 24 mM KCl (pH 5.5), 24 h): >128 µM; MFC ([1]; 37 °C, 150 mM NaCl (pH 5.5), 24 h): >128 µM; MFC ([1]; 37 °C, pH 5.5, 10 mM sodium phosphate buffer containing 10% media, 24 h): >128 µM; MFC ([1]; Candida albicans, CCARM14007, 24 h, pH 5.5): > 128 µM; MFC ([1]; Candida albicans, CCARM14007, 24 h, pH 6): > 128 µM; MFC ([1]; Candida albicans, CCARM14007, 24 h, pH 7.2): > 128 µM; MFC (C. albicans KCTC 7270; KCTC7270, read-out: MFC after six passages, 28 °C, surviving cells at half MFC re-treated each passage): 2050 µM (≈ 627 µg/mL); MFC (C. albicans KCTC 7270; KCTC7270, read-out: MFC after six passages, 37 °C, surviving cells at half MFC re-treated each passage): 4100 µM (≈ 1250 µg/mL); MFC (C. albicans KCTC 7270; KCTC7270, read-out: MFC at first passage, 28 °C, drug-sensitive C. albicans KCTC 7270): 128 µM (≈ 39.2 µg/mL); MFC (C. albicans KCTC 7270; KCTC7270, read-out: MFC at first passage, 37 °C, drug-sensitive C. albicans KCTC 7270): 128 µM (≈ 39.2 µg/mL); inhibition of TNF-α secretion in whole blood serum ([2]; C. albicans-infected mice, 2 mg/kg intratracheal 1 h after infection, 6 days, ELISA): approximately 65%; NO production in whole blood serum (in words) ([2]; C. albicans-infected mice, 2 mg/kg intratracheal 1 h after infection, 6 days, Griess reagent): did not inhibit NO production; lung histology of infected mice (in words) ([2]; C. albicans-infected mice, 2 mg/kg intratracheal, H&E and alcian blue staining): an increase in the release of mucins; TNF-α expression (in words) ([4]; CLSM): Overexpression of TNF-α; macrophage morphology (in words) ([4]; with C. albicans): Lamellipodia extension and spreading of cells

**Q.** For RWYRRWYRRWYR-NH2 [PS1-5], which MFC ([1]; CCARM 14007, 24 h, pH 6) is on record?
**A.** 16 µM

**Q.** And the MFC ([1]; CCARM 14007, 24 h, pH 7.2)?
**A.** 32 µM

**Q.** Which MFC ([1]; CCARM 14007, 24 h, pH 6) does the source give for KWLKKWLKKWLK-NH2 [PS1-6] here?
**A.** 16 µM

**Q.** What about the MFC ([1]; CCARM 14007, 24 h, pH 7.2) of the same compound?
**A.** 16 µM

**Q.** And the “toxicity / cytotoxicity (in words)” value [3]?
**A.** significant toxicity

— paper PMC9774446, “Antifungal and Anti-Inflammatory Activities of PS1-2 Peptide against Fluconazole-Resistant Candida albicans” (Antibiotics, 2022)
